Experimental data as given in paper PMC5449183, “Helical jackknives control the gates of the double-pore K^+ uptake system KtrAB” (eLife, 2017).

How the values were obtained:
[1] = molecular target: T1, KtrA (RCK subunit of the KtrAB complex) (Vibrio alginolyticus, UniProt O87952); test: ITC on detergent-solubilized KtrAB; […] Å cryo-EM map in the presence of ADP (EMD-3450); pulsed EPR; type: binding; design: full-length KtrAB, His10-KtrAB, detergent-solubilized complex (octameric KtrA ring); with KtrB
[2] = molecular target: T1, KtrA (RCK subunit of the KtrAB complex); test: biochemical
[3] = molecular target: KtrB from Vibrio alginolyticus (untagged, of the His10-KtrAB complex) (Vibrio alginolyticus) (UniProt O87953); test: cryo-EM structure; His10-KtrAB 5 mg/ml, detergent-solubilised (1.5 mM Cymal-6), 600 uM ADP, 70 mM NaCl, 30 mM KCl, 20 mM Tris-HCl pH 8.0; 20,500 particles, D2 symmetry, 6.6 A; model by flexible fitting of a homology model
[4] = molecular target: the molecule itself; test: as above

T1 sequence (O87953 whole entry, one chain of several, further chain): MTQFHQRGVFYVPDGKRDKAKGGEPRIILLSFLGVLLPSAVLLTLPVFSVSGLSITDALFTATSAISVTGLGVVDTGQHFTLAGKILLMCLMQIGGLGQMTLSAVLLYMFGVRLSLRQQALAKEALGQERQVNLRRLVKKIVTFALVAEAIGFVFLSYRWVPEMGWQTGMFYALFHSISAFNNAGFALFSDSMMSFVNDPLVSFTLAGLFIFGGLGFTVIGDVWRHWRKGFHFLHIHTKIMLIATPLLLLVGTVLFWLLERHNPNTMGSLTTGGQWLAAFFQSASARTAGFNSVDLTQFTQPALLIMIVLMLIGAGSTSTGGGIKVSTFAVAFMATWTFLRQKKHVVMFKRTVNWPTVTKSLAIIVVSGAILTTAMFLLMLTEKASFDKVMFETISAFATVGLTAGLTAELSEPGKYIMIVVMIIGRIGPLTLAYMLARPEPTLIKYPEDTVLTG

## Nc1ncnc2c1ncn2[C@@H]1O[C@H](COP(=O)(O)OP(=O)(O)O)[C@@H](O)[C@H]1O [ADP]
[1]
  Kd: 3000 nM

## Nc1ncnc2c1ncn2[C@@H]1O[C@H](COP(=O)(O)OP(=O)(O)OP(=O)(O)O)[C@@H](O)[C@H]1O [ATP]
[2]
  Kd: 2000 nM

## KtrB from Vibrio alginolyticus (untagged, of the His10-KtrAB complex) (from UniProt O87953 1-455) (natural protein)
[3]
  stoichiometry N: 2

B1: KtrA from Vibrio alginolyticus (His10-KtrA of the His10-KtrAB complex) (natural protein, UniProt O87952 1-220, looked up)
chain: MKTGDKQFAVIGLGRFGLAVCKELQDSGSQVLAVDINEDRVKEAAGFVSQAIVANCTHEETVAELKLDDYDMVMIAIGADVNASILATLIAKEAGVKSVWVKANDRFQARVLQKIGADHIIMPERDMGIRVARKMLDKRVLEFHPLGSGLAMTEFVVGSRLMGKTLSDLALCKVEGVQVLGYKRGPEIIKAPDMSTTLEIGDLIIVVGPQDKLANKLKSL
notes: KtrA, cytoplasmic RCK subunit of the K+ uptake system KtrAB, Vibrio alginolyticus; gene amplified from genomic DNA; Forms an octameric ring (eight chains) in the complex KtrB2A8B2; The N-terminal end of the tag is read from the label His10-KtrAB; ADP (600 uM) was present in the cryo-EM sample; also called VaKtrA; RCK subunit; source: E. coli LB2003, co-expressed with KtrB from pBAD18 …
[4]
  stoichiometry N: 8
